Experimental findings from article PMC11125126, “Synthesis, Characterisation, and In Vitro Evaluation of Biocompatibility, Antibacterial and Antitumor Activity of Imidazolium Ionic Liquids” (Pharmaceutics, 2024) are described below.

For assay [1], the system named is Pseudomonas fluorescens. Kind of assay: MIC/MBC by broth dilution, pure ILs. As to conditions: 24 h. The assay is classed as cell-based. The source says: (§1) Within the Di3A (Dipartimento di Agricoltura, Alimentazione e Ambiente, University of Catania, Italy) microbial collection, two Gram-negative strains (Escherichia coli and Pseudomonas fluorescens) and one Gram-positive strain (Listeria monocytogenes) were studied in order to define the potential efficacy of ionic liquids in relation to the different structure of the bacterial cell wall.
(§2) For the pure ILs, the minimal inhibitory concentration (MIC) and minimal bactericidal concentration (MBC) were determined in Nutrient Broth (NB, Oxoid, Basingstoke, UK) medium by broth dilution method, according to the Clinical and Laboratory Standards Institute (CLSI).
All the bacterial strains were individually grown for 24 h at 35 or 27 °C for P. fluorescens, with shaking. After the incubation period, the cells were collected by centrifugation and re-suspended in sterile NB to obtain a stock culture of 10^9 CFU/mL. […]
(§3) Tubes were incubated at 35 or 27 °C in an orbital shaker and evaluated for the viable count of E. coli, P. fluorescens, and L. monocytogenes after 24 h by spread-plating 100 µL of each suspension on Nutrient Agar (NA, Oxoid, Basingstoke, UK) incubated for 24–48 h at 35 or 27 °C.
(§4) In this study, MIC and MBC are expressed in both µg/mL and µM to make the comparison with the literature data easy. Each experiment was performed in triplicate.

The subject of assay [2] is Escherichia coli. Kind of assay: MIC/MBC by broth dilution, pure ILs. The class given is cell-based. As to conditions: 24 h.
Text: as §1, §2
(§5) All the bacterial strains were individually grown for 24 h at 35 or 27 °C for P. fluorescens, with shaking. After the incubation period, the cells were collected by centrifugation and re-suspended in sterile NB to obtain a stock culture of 10^9 CFU/mL.
(§6) Tubes containing 5 mL of NB with decreasing concentrations of ILs (1000, 500, 250, 125, 50, 25, 12.5, 5 and 0 µg/mL) were inoculated with each bacterial stock culture at a final concentration of 10^6 CFU/mL.
as §3, §4

In assay [3] the test system is Listeria monocytogenes. Kind of assay: MIC/MBC by broth dilution, pure ILs. The assay is classed as cell-based. As to conditions: 24 h.
Text: as §1, §2, §5, §6, §3, §4

The subject of assay [4] is MCF7 cancer cells. Nature of the assay: Direct cytotoxicity test of IL powders, Alamar blue assay. The class given is cell-based, human. As to conditions: 24 h of incubation. As to the method: (§7) Cytotoxicity studies on IL powders were carried out using human dermal fibroblast (HDF) cells (Sigma-Aldrich) and a human breast cancer cell line (MCF7). In addition, ILs loaded in PVC polymer substrates were tested for their cytocompatibility and adhesion properties on the HDF. HDF cells were cultured in 75 cm^2 cell culture flask in Dulbecco’s Modified Eagle’s Medium (DMEM) supplemented with 20% Foetal Bovine Serum (FBS), 1% non-essential amino acid (NEAA), antibiotic solution (streptomycin 100 µg/mL and penicillin 100 U/mL, Sigma Aldrich) and 2 mM L-glutamine. MCF7 cells were grown in DMEM with 10% FBS and the same antibiotics as mentioned above. The cells were maintained in a culture at 37 °C, with 5% CO2 and 95% humidity to achieve a confluent layer. Control cells were cultured in a complete medium without any compounds in tissue culture plates. Before biological testing, the samples were sterilised using a UV light for 2 h.
(§8) A direct cytotoxicity test was used to assess the in vitro cytotoxicity of IL powders. IL powders with different alkyl chains were dissolved in DMEM media to obtain solutions at various concentrations (0.5–1–5 and 10 µg/mL) to determine the best formulation.
(§9) After 24 h of incubation of IL solutions (200 µL) with seeded cells under specific environmental conditions (T = 37 °C, HR = 95%, CO2 = 5%), cell viability was tested using the Alamar blue assay (AbD Serotec, Milan, Italy) following the manufacturer’s instructions.
(§10) In summary, each well received a 200 µL aliquot of Alamar Blue^TM diluted 1:10 in phenol red-free medium and was incubated for 4 h at 37 °C, 5% CO2. Following this, 100 µL of the solution was transferred to a 96-well plate for colorimetric analysis. Wells with no cells were included to account for any background interference from the redox indicator. Optical density was immediately measured using a spectrophotometer (Victor X3, Perkin Elmer, Waltham, MA, USA) at 560 and 595 nm wavelengths. The results were presented as a percentage of cell viability compared to that of the control (cells grown on tissue culture plates).
(§11) Here, the antitumor activity and cytotoxicity of the synthetised imidazolium-based ionic liquids have been determined for breast cancer cells (MCF-7) and healthy human fibroblast (HDF) cells. […] Table 5 reports the IC50 values in µg/mL and µM to make their comparison with the literature data easy.

Assay [5] concerns HDF cells. Described as above. The assay is classed as cell-based, human. As to conditions: 24 h of incubation. The method, then:
as §7, §8, §9, §10, §11

Setting [6] is: NI = no inhibition at IL maximum concentration used (1000 µM), read-out: MIC.
Where [7] appears, read: NI = no inhibition at IL maximum concentration used (1000 µM), read-out: MBC.

Where two headings read alike, the source gives them in different places. Some results are limits rather than exact numbers.

With `CCCCCCCCC[n+]1ccn(C)c1.F[B-](F)(F)F` [C9mimBF4], the MIC in assay [1] (setting [6]) was more than 1000 µM; in assay [2] (10^6 CFU/mL, read-out: MIC) it was 296 µg/mL; in assay [2] (setting [6]), 1000 µM; in assay [3] (10^6 CFU/mL, read-out: MIC) it was 148 µg/mL; in assay [3] (setting [6]), 500 µM. Besides, the MBC in assay [2] (10^6 CFU/mL, read-out: MBC) was 296 µg/mL; in assay [2] (setting [7]), 1000 µM; in assay [3] (10^6 CFU/mL, read-out: MBC), 148 µg/mL; in assay [3] (setting [7]), 500 µM. The IC50 is more than 14.8 µg/mL in assay [4] (Homo sapiens, n = 3); more than 50 µM in assay [4] (Homo sapiens, n = 3, mean ± SD); 17.4 µM in assay [5] (Homo sapiens, n = 3); 5.14 ± 0.1 µg/mL in assay [5] (Homo sapiens, n = 3, mean ± SD).
Consider `CCCCCCCCCC[n+]1ccn(C)c1.COC(=O)c1cc(C(=O)OC)cc(S(=O)(=O)[O-])c1` [C10mimDMSIP], for which the MBC in assay [1] (10^6 CFU/mL) is 496.62 µg/mL; in assay [1] (setting [7]), 1000 µM; in assay [2] (10^6 CFU/mL) it was 248.31 µg/mL; in assay [2] (setting [7]), 500 µM; in assay [3] (10^6 CFU/mL), 496.62 µg/mL; in assay [3] (setting [7]) it was 1000 µM. For the same molecule, the MIC in assay [1] (10^6 CFU/mL) amounted to 248.31 µg/mL; in assay [1] (setting [6]), 500 µM; in assay [2] (10^6 CFU/mL), 124.16 µg/mL; in assay [2] (setting [6]), 250 µM; in assay [3] (10^6 CFU/mL), 124.16 µg/mL; in assay [3] (setting [6]) it was 250 µM. The “IC50 MCF7” value in assay [4] (n = 3) was 5.42 µg/mL. The IC50 in assay [4] (n = 3, mean ± SD) is 10.9 µM; in assay [5] (n = 3), 11.2 µM. In assay [5] (n = 3, mean ± SD), the “IC50 HDF” value was 5.56 ± 0.04 µg/mL.
Consider `CCCCCCCCCCCCn1cc[n+](C)c1.COC(=O)c1cc(C(=O)OC)cc(S(=O)(=O)[O-])c1` [C12mimDMSIP, 1-dodecyl-3-methylimidazolium 1,3-dimethyl-5-sulfoisophthalate], for which the minimal bactericidal concentration (MBC) was 262.33 µg/mL in assay [1] (10^6 CFU/mL); 500 µM in assay [1] (setting [7]); 65.58 µg/mL in assay [2] (10^6 CFU/mL); 125 µM in assay [2] (setting [7]); 26.24 µg/mL in assay [3] (10^6 CFU/mL); 50 µM in assay [3] (setting [7]). The MIC in assay [1] (10^6 CFU/mL) came to 65.58 µg/mL; in assay [1] (setting [6]), 125 µM; in assay [2] (10^6 CFU/mL), 26.24 µg/mL; in assay [2] (setting [6]), 50 µM; in assay [3] (10^6 CFU/mL) it was 13.12 µg/mL; in assay [3] (setting [6]), 25 µM. In addition, in assay [4] (n = 3), the “IC50 MCF7” value came out at 4.95 µg/mL. In addition, the IC50 in assay [4] (n = 3, mean ± SD) was 9.44 µM; in assay [5] (n = 3) it was 10.6 µM. The “IC50 HDF” value in assay [5] (n = 3, mean ± SD) was 5.56 ± 0.04 µg/mL.
Turning to `CCCCCCCCCCCCn1cc[n+](C)c1.F[B-](F)(F)F` [C12mimBF4, 1-dodecyl-3-methylimidazolium tetrafluoroborate], the MBC in assay [1] (10^6 CFU/mL, read-out: MBC) is 42.3 µg/mL; in assay [1] (setting [7]) it was 125 µM; in assay [2] (10^6 CFU/mL, read-out: MBC), 84.6 µg/mL; in assay [2] (setting [7]) it was 250 µM; in assay [3] (10^6 CFU/mL, read-out: MBC) it was 16.9 µg/mL; in assay [3] (setting [7]), 50 µM. Moreover, the minimal inhibitory concentration (MIC) in assay [1] (10^6 CFU/mL, read-out: MIC) was found to be 16.9 µg/mL; in assay [1] (setting [6]) it was 50 µM; in assay [2] (10^6 CFU/mL, read-out: MIC), 16.9 µg/mL; in assay [2] (setting [6]), 50 µM; in assay [3] (10^6 CFU/mL, read-out: MIC), 8.46 µg/mL; in assay [3] (setting [6]), 25 µM. For the same molecule, the IC50 is 2.05 µg/mL in assay [4] (Homo sapiens, n = 3); 6.06 µM in assay [4] (Homo sapiens, n = 3, mean ± SD); 12.8 µM in assay [5] (Homo sapiens, n = 3); 4.34 ± 0.01 µg/mL in assay [5] (Homo sapiens, n = 3, mean ± SD).
For the molecule `COc1cccc2c1C(=O)c1c(O)c3c(c(O)c1C2=O)C[C@@](O)(C(=O)CO)C[C@@H]3O[C@H]1C[C@H](N)[C@H](O)[C@H](C)O1` [Doxorubicin, reference compound], the half-inhibitory concentration (IC50) was 7.2 µg/mL in assay [4] (Homo sapiens, n = 3) and 13.2 µM in assay [4] (Homo sapiens, n = 3, mean ± SD).
On to `CCCCCCCCCCCCCCCCCC[n+]1ccn(C)c1.COC(=O)c1cc(C(=O)OC)cc(S(=O)(=O)[O-])c1` [C18mimDMSIP], for which the MBC in assay [2] (10^6 CFU/mL) is given as 608.83 µg/mL; in assay [2] (setting [7]) it was 1000 µM; in assay [3] (10^6 CFU/mL) it was 304.4 µg/mL; in assay [3] (setting [7]), 500 µM. Moreover, the MIC is given as 608.83 µg/mL in assay [2] (10^6 CFU/mL), 1000 µM in assay [2] (setting [6]), 304.4 µg/mL in assay [3] (10^6 CFU/mL) and 500 µM in assay [3] (setting [6]). Moreover, in assay [4] (n = 3), the “IC50 MCF7” value is 1.96 µg/mL. For the same molecule, the 50% inhibitory concentration (IC50) in assay [4] (n = 3, mean ± SD) was 3.22 µM; in assay [5] (n = 3), 6.59 µM. Moreover, the “IC50 HDF” value in assay [5] (n = 3, mean ± SD) is 4.01 ± 0.14 µg/mL.
